Data taken from patent publication EP4603506A1, “NOVEL GLP-1 RECEPTOR ANTAGONIST, AND PHARMACEUTICAL COMPOSITION FOR PREVENTING OR TREATING CONGENITAL […] OR HYPOGLYCEMIA, COMPRISING SAME” (Hanmi Pharm. Co., Ltd., priority 2022, dated 2024).
Starred links: 1 amine or outer side, 2 acyl side, 3 side chain; linkers in the order of their positions; H or OH if unused. Residues, ends and D or L forms follow the SMILES beside them. Groups on a side chain read outwards from the residue. *: point of attachment. C18 diacid = O=C(O)CCCCCCCCCCCCCCCCC(=O)*; γGlu = O=C(O)[C@H](CCC(=O)[*:2])N[*:1]; AEEA = NCCOCCOCC(=O)O

What was measured:
C57BL/6N mice = test: Oral glucose tolerance test (OGTT), blood glucose levels; assay type: in vivo; settings: 2 g/kg oral glucose after 4-hour fasting, 3690 and 7380 µg/kg subcutaneous, 24 hours before OGTT, versus vehicle control, FIG. 1
Protocol: The test was conducted on 8-week-old male mice, and during the study, five mice were housed in each group and had free access to drinking water. The lights were turned off from 6 PM to 6 AM.
The administration of the drugs was completed 24 hours before the oral glucose tolerance test (OGTT) for Groups 1, 3, and 4, and 30 minutes before for Group 2. Particularly, the dose was expressed as a value based on the value obtained by subtracting the mass of the fatty acid moieties from the total mass of the acylated GLP-1 receptor antagonist analog conjugate, that is, the value obtained by summing the mass of each of only polypeptide moieties.
As for the OGTT, all the groups were orally administered 2 g/kg glucose once after 4-hour fasting, and then blood samples were consecutively collected from the tail vein at specific time intervals (0, 15, 30, 60, and 120 minutes) to measure blood glucose levels by a OneTouch blood glucose meter (OneTouch Select®, LifeScan, USA). Statistical analysis was performed using an unpaired t-test to compare between the control group and the test groups (# ~ ###p < 0.05 ~ 0.001).

[1] = tested on: PBH rat model (VSG, SD rats); test: Mixed meal tolerance test (MMTT) in postbariatric hypoglycemia (PBH) rat model induced by vertical sleeve gastrectomy (VSG); assay type: in vivo; settings: MMTT 4 hours after 3720 µg/kg (1070.5 nmol/kg) subcutaneous, versus excipient, FIG. 2
Protocol: A PBH rat model was established by performing sham operations or VSG surgery on SD rats. The rats were fed a high-fat diet (HFD) for 19 weeks, and divided randomly into two groups with 10 animals each (an excipient control group and a GLP-1R antagonist analog conjugate administered group). […] As for the MMTT, all the groups were orally administered 2 mL of a mixed meal (Ensure Plus®, Abbott, USA) once after 5-hour fasting, and then blood samples were consecutively collected at specific time intervals (0, 15, 30, 45, 60, and 120 minutes) to measure blood glucose levels (GDoctor, Allmedicus Co., Korea). Statistical analysis was performed using the one-way ANOVA to compare between the VSG rat excipient group (control group) and the test groups (* ~ ***p < 0.05 ~ 0.001). Particularly, the dose was expressed as a value based on the value obtained by subtracting the mass of the fatty acid moieties from the total mass of the acylated GLP-1 receptor antagonist analog conjugate, that is, the value obtained by summing the masses of each of only polypeptide moieties.
Additionally, 15 minutes after the MMTT test, plasma was isolated from blood samples, and the insulin secretion level was measured using a rat insulin ELISA kit ([…], Merck Millipore, USA).

human GLP-1R (hGLP-1R) = human GLP-1R (hGLP-1R) (Homo sapiens, UniProt P43220); test: In vitro cell activity: cAMP inhibition (LANCE Ultra cAMP kit) in CHO cells expressing human GLP-1R, with GLP-1 added; assay type: cell-based; settings: relative activity from IC50 of cAMP inhibition; 0.1 nM GLP-1 added; comparative substance exendin-3 (9-39) amide = 100
Protocol: The human GLP-1R-expressed CHO cells were cultured in a 384-well plate for 24 hours. Thereafter, the culture was removed, and 10 µL of each serially diluted substance was added to the plate, followed by incubation at room temperature for 30 minutes. Then, 5 µL of Eu-cAMP tracer was added, and then 5 µL of a buffer containing cAMP antibodies was added, followed by incubation at room temperature for 60 minutes. […]

human GLP-1R (hGLP-1R), sequence (P43220 24-463): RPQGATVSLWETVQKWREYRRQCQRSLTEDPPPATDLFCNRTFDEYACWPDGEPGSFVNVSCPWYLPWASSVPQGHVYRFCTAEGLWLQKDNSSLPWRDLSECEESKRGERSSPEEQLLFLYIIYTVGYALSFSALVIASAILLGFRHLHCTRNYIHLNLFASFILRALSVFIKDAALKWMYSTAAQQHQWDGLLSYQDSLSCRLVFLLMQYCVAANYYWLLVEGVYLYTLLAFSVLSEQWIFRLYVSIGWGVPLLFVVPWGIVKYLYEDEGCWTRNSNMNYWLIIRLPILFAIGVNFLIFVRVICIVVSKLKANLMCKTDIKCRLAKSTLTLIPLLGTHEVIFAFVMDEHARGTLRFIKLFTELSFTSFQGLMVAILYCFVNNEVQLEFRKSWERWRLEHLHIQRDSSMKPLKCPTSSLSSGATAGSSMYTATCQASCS

Compound	blood glucose levels (C57BL/6N mice)	blood glucose levels [1]	In vitro activity compared with comparative substance (%) (human GLP-1R (hGLP-1R))
DLSSYLEEEAVRLFIEWLKNGGPSSGAPPPSK(2) [SEQ ID NO: 17]	increased the blood glucose levels in vivo compared with the control group at all the doses	significantly increased blood glucose levels in vivo compared with PBH rats administered the excipient	–
CC[C@H](C)[C@H](NC(=O)[C@H](Cc1ccccc1)NC(=O)[C@H](CC(C)C)NC(=O)[C@H](CCCNC(=N)N)NC(=O)[C@@H](NC(=O)[C@H](C)NC(=O)[C@H](CCC(=O)O)NC(=O)[C@H](CCC(=O)O)NC(=O)[C@H](CCC(=O)O)NC(=O)[C@H](CC(C)C)NC(=O)[C@H](Cc1ccc(O)cc1)NC(=O)[C@H](CO)NC(=O)[C@H](CO)NC(=O)[C@@H](NC(=O)[C@H](CC(=O)O)NC(C)=O)C(C)C)C(C)C)C(=O)N[C@@H](C)C(=O)N[C@@H](Cc1c[nH]c2ccccc12)C(=O)N[C@@H](CC(C)C)C(=O)N[C@H](C(=O)N[C@@H](CCCCN)C(=O)NCC(=O)NCC(=O)N1CCC[C@H]1C(=O)N[C@@H](CO)C(=O)N[C@@H](CO)C(=O)NCC(=O)N[C@@H](C)C(=O)N1CCC[C@H]1C(=O)N1CCC[C@H]1C(=O)N1CCC[C@H]1C(=O)N[C@@H](CO)C(=O)N[C@@H](CCCCNC(=O)COCCOCCNC(=O)COCCOCCNC(=O)CC[C@H](NC(=O)CCCCCCCCCCCCCCCCC(=O)O)C(=O)O)C(N)=O)C(C)C [SEQ ID NO: 18] (Ac-DVSSYLEEEAVRLFIAWLVKGGPSSGAPPPSK([AEEA-AEEA-γGlu-C18 diacid])-NH2)	–	–	19.8
CC[C@H](C)[C@H](NC(=O)[C@H](Cc1ccccc1)NC(=O)[C@H](CC(C)C)NC(=O)[C@H](CCCNC(=N)N)NC(=O)[C@@H](NC(=O)[C@H](C)NC(=O)[C@H](CCC(=O)O)NC(=O)[C@H](CCC(=O)O)NC(=O)[C@H](CCC(=O)O)NC(=O)[C@H](CC(C)C)NC(=O)[C@H](Cc1ccc(O)cc1)NC(=O)[C@H](CO)NC(=O)[C@H](CO)NC(=O)[C@@H](NC(=O)[C@H](CC(=O)O)NC(C)=O)C(C)C)C(C)C)C(=O)N[C@@H](C)C(=O)N[C@@H](Cc1c[nH]c2ccccc12)C(=O)N[C@@H](CC(C)C)C(=O)N[C@H](C(=O)N[C@@H](CCCCN)C(=O)NCC(=O)NCC(=O)N1CCC[C@H]1C(=O)N[C@@H](CO)C(=O)N[C@@H](CO)C(=O)NCC(=O)N[C@@H](C)C(=O)N1CCC[C@H]1C(=O)N1CCC[C@H]1C(=O)N1CCC[C@H]1C(=O)N[C@@H](CO)C(N)=O)C(C)C [SEQ ID NO: 8] (Ac-DVSSYLEEEAVRLFIAWLVKGGPSSGAPPPS-NH2)	–	–	238.5
CC[C@H](C)[C@H](NC(=O)[C@H](Cc1ccccc1)NC(=O)[C@H](CC(C)C)NC(=O)[C@H](CCCNC(=N)N)NC(=O)[C@@H](NC(=O)[C@H](C)NC(=O)[C@H](CCC(=O)O)NC(=O)[C@H](CCC(=O)O)NC(=O)[C@H](CCC(=O)O)NC(=O)[C@H](CC(C)C)NC(=O)[C@H](Cc1ccc(O)cc1)NC(=O)[C@H](CO)NC(=O)[C@H](CO)NC(=O)[C@@H](NC(=O)[C@H](CC(=O)O)NC(C)=O)C(C)C)C(C)C)C(=O)N[C@@H](C)C(=O)N[C@@H](Cc1c[nH]c2ccccc12)C(=O)N[C@@H](CC(C)C)C(=O)N[C@H](C(=O)N[C@@H](CCCCNC(=O)COCCOCCNC(=O)COCCOCCNC(=O)CC[C@H](NC(=O)CCCCCCCCCCCCCCCCC(=O)O)C(=O)O)C(=O)NCC(=O)NCC(=O)N1CCC[C@H]1C(=O)N[C@@H](CO)C(=O)N[C@@H](CO)C(=O)NCC(=O)N[C@@H](C)C(=O)N1CCC[C@H]1C(=O)N1CCC[C@H]1C(=O)N1CCC[C@H]1C(=O)N[C@@H](CO)C(N)=O)C(C)C [SEQ ID NO: 15]	–	–	14.3
CC[C@H](C)[C@H](NC(=O)[C@H](Cc1ccccc1)NC(=O)[C@H](CC(C)C)NC(=O)[C@H](CCCNC(=N)N)NC(=O)[C@H](C)NC(=O)[C@H](C)NC(=O)[C@H](CCC(=O)O)NC(=O)[C@H](CCC(=O)O)NC(=O)[C@H](CCC(=O)O)NC(=O)[C@H](CC(C)C)NC(=O)[C@H](Cc1ccc(O)cc1)NC(=O)[C@H](CO)NC(=O)[C@H](CO)NC(=O)[C@@H](NC(=O)[C@H](CC(=O)O)NC(C)=O)C(C)C)C(=O)N[C@@H](C)C(=O)N[C@@H](Cc1c[nH]c2ccccc12)C(=O)N[C@@H](CC(C)C)C(=O)N[C@H](C(=O)N[C@@H](CCCCNC(=O)COCCOCCNC(=O)COCCOCCNC(=O)CC[C@H](NC(=O)CCCCCCCCCCCCCCCCC(=O)O)C(=O)O)C(=O)NCC(=O)NCC(=O)N1CCC[C@H]1C(=O)N[C@@H](CO)C(=O)N[C@@H](CO)C(=O)NCC(=O)N[C@@H](C)C(=O)N1CCC[C@H]1C(=O)N1CCC[C@H]1C(=O)N1CCC[C@H]1C(=O)N[C@@H](CO)C(N)=O)C(C)C [SEQ ID NO: 16]	–	–	13.5
